This passage reports EC80 results from PMC9798004 (Frontiers in Psychiatry, 2022).

Holding throughout (test): PathHunter β-arrestin assay
Assay type in all cases: cell-based

In assay [1] the target is T1, PTGIR (Homo sapiens, UniProt P43119).
T1 construct: purchased Eurofins DiscoverX (PathHunter gpcrMAX)
Particulars: screen, control agonist; CHO, 37C, 2HR.

In assay [2] the target is T2, P2RY1 (Homo sapiens, UniProt P47900).
T2 construct: purchased Eurofins DiscoverX (PathHunter gpcrMAX)
Particulars: screen, control agonist; U2OS, RT, 2HR.

In assay [3] the target is T3, P2RY12 (Homo sapiens, UniProt Q9H244).
T3 construct: purchased Eurofins DiscoverX (PathHunter gpcrMAX)
Particulars: screen, control agonist; CHO, RT, 2HR.

Assay [4] concerns the target T4, OXER1 (Homo sapiens, UniProt Q8TDS5).
T4 construct: purchased Eurofins DiscoverX (PathHunter gpcrMAX)
Particulars: screen, control agonist; CHO, RT, 2HR.

The target of assay [5] is T5, P2RY11 (Homo sapiens, UniProt Q96G91).
T5 construct: purchased Eurofins DiscoverX (PathHunter gpcrMAX)
The conditions noted are these: screen, control agonist; CHO, 37C, 2HR.

Assay [6] has as its target T6, TBXA2R (Homo sapiens, UniProt P21731).
T6 construct: purchased Eurofins DiscoverX (PathHunter gpcrMAX)
Particulars: screen, control agonist; U2OS, 37C, 2HR.

The target of assay [7] is T7, PTAFR (Homo sapiens, UniProt P25105).
T7 construct: purchased Eurofins DiscoverX (PathHunter gpcrMAX)
The conditions noted are these: screen, control agonist; CHO, 37C, 2HR.

The target in assay [8] is PTGER4 (Homo sapiens, UniProt P35408). Particulars: control agonist. The protocol:
(§1) Follow up experiments were prioritized based on the difference between S/N and CoV. Targets with a >5-fold difference between S/N and CoV were investigated for their potential contribution to the AMB-FUBINACA toxidrome with 10-point concentration-response curves generated in technical replicate (range 1.5–30 μM) using the EC80 of the relevant agonist, where applicable in antagonist mode. Simultaneous agonist and antagonist curves were run in parallel to ensure reliability of the assay (see Supplementary Table 2), with both RC50 and signal to background aligning with historical averages, and Z' >0.5. RC50 was estimated using a four-parameter fit (CBIS Data Analysis Suite, ChemInnovation, San Diego, CA) on normalized data.

For assay [9], the target named is T8, PTGER2 (Homo sapiens, UniProt P43116).
T8 construct: purchased Eurofins DiscoverX (PathHunter gpcrMAX)
The conditions noted are these: screen, control agonist; CHO, 37C, 2HR.

The target in assay [10] is P2RY6 (Homo sapiens, UniProt Q15077). Particulars: screen, control agonist; CHO, 37C, 2HR. How it is done:
as §1

In assay [11] the target is T9, P2RY2 (Homo sapiens, UniProt P41231).
T9 construct: purchased Eurofins DiscoverX (PathHunter gpcrMAX)
Particulars: screen, control agonist; U2OS, 37C, 2HR.

Assay [12] deals with T10, P2RY4 (Homo sapiens, UniProt P51582).
T10 construct: purchased Eurofins DiscoverX (PathHunter gpcrMAX)
Particulars: screen, control agonist; CHO, 37C, 2HR.

For assay [13], the target named is T11, BDKRB1 (Homo sapiens, UniProt P46663).
T11 construct: purchased Eurofins DiscoverX (PathHunter gpcrMAX)
Particulars: screen, control agonist; CHO, 37C, 2HR.

Assay [14] concerns the target T12, NPSR1b (Homo sapiens, UniProt Q6W5P4).
T12 construct: purchased Eurofins DiscoverX (PathHunter gpcrMAX)
T12 sequence (Q6W5P4 1-377 isoform Q6W5P4-4): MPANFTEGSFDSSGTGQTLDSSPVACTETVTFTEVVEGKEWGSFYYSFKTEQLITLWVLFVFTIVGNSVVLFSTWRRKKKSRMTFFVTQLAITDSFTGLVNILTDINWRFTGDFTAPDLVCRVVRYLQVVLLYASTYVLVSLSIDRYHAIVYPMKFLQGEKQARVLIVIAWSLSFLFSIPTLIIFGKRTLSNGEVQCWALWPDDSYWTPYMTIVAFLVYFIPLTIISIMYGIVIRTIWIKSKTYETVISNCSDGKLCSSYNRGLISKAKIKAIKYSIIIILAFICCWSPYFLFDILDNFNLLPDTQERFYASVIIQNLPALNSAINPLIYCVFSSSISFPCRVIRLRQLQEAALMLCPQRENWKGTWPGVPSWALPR
The conditions noted are these: screen, control agonist; U2OS, 37C, 2HR.

For assay [15], the target named is T13, NPY1R (Homo sapiens, UniProt P25929).
T13 construct: purchased Eurofins DiscoverX (PathHunter gpcrMAX)
T13 sequence (P25929 1-384): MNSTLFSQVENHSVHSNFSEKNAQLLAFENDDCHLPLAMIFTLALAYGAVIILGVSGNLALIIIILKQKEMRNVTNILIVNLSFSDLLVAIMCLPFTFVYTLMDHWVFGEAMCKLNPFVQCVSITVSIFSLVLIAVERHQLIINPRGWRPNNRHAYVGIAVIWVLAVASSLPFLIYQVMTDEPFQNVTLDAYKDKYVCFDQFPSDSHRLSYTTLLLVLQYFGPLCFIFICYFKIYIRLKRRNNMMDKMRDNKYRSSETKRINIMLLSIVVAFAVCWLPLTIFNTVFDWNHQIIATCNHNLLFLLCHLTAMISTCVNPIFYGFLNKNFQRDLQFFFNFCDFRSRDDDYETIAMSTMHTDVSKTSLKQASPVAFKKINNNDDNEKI
The conditions noted are these: screen, control agonist; CHO, RT, 2HR.

Assay [16] concerns the target T14, PRLHR (Homo sapiens, UniProt P49683).
T14 construct: purchased Eurofins DiscoverX (PathHunter gpcrMAX)
T14 sequence (P49683 1-370): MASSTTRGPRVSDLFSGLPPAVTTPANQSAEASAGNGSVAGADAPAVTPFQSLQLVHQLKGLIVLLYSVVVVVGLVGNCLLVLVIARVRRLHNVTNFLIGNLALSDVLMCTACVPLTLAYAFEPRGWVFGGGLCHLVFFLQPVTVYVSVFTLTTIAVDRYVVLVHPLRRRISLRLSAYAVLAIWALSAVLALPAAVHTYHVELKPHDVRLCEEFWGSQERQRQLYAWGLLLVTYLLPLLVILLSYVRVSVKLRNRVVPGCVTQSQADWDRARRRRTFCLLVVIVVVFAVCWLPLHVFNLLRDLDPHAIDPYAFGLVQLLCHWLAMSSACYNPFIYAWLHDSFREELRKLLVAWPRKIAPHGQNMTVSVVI
Particulars: screen, control agonist; CHO, 37C, 2HR.

Assay [17] concerns the target T15, RXFP3 (Homo sapiens, UniProt Q9NSD7).
T15 construct: purchased Eurofins DiscoverX (PathHunter gpcrMAX)
T15 sequence (Q9NSD7 1-469): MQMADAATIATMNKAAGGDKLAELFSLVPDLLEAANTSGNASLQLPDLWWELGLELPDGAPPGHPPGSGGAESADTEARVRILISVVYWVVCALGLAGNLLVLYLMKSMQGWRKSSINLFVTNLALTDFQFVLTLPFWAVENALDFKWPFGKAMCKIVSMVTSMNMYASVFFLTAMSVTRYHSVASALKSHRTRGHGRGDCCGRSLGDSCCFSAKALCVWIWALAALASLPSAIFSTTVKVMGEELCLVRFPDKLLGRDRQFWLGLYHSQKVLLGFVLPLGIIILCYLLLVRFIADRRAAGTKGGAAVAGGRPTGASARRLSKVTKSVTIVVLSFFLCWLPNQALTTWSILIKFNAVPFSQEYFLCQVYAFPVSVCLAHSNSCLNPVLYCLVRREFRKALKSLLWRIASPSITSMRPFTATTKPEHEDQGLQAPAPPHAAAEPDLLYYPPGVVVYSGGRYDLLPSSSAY
Particulars: screen, control agonist; CHO, 37C, 2HR.

Assay [18] addresses T16, TACR3 (Homo sapiens, UniProt P29371).
T16 construct: purchased Eurofins DiscoverX (PathHunter gpcrMAX)
T16 sequence (P29371 1-465): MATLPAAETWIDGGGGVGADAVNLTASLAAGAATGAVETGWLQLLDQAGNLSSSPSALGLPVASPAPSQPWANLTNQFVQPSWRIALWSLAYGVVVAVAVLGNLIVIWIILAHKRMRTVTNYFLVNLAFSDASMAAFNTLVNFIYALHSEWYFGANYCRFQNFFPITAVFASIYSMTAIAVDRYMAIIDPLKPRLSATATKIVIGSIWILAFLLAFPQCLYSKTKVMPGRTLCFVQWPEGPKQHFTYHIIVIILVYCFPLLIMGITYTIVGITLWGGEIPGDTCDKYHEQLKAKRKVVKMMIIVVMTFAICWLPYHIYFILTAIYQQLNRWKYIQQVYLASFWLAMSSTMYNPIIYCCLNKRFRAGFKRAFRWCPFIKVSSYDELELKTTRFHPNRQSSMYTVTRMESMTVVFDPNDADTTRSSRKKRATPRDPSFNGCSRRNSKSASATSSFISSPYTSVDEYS
The conditions noted are these: screen, control agonist; CHO, 37C, 2HR.

In assay [19] the target is T17, PTHR2 (Homo sapiens, UniProt P49190).
T17 construct: purchased Eurofins DiscoverX (PathHunter gpcrMAX)
The conditions noted are these: screen, control agonist; CHO, 37C, 2HR.

The target in assay [20] is T18, SSTR3 (Homo sapiens, UniProt P32745).
T18 construct: purchased Eurofins DiscoverX (PathHunter gpcrMAX)
Particulars: screen, control agonist; CHO, 37C, 2HR.

In assay [21] the target is T19, C5AR1 (Homo sapiens, UniProt P21730).
T19 construct: purchased Eurofins DiscoverX (PathHunter gpcrMAX)
T19 sequence (P21730 1-350): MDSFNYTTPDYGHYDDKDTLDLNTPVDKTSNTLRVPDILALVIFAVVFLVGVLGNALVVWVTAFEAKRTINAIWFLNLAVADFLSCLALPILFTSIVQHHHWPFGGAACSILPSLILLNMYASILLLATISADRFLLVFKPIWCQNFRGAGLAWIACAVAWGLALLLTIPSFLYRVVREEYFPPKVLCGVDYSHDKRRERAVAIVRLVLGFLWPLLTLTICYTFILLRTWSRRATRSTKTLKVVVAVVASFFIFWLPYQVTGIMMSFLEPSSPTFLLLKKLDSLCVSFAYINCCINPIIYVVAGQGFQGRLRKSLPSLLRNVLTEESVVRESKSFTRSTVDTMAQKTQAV
Particulars: screen, control agonist; CHO, RT, 2HR.

In assay [22] the target is T20, C5L2 (Homo sapiens, UniProt Q9P296).
T20 construct: purchased Eurofins DiscoverX (PathHunter gpcrMAX)
The conditions noted are these: screen, control agonist; CHO, 37C, 2HR.

For assay [23], the target named is T21, PROKR1 (Homo sapiens, UniProt Q8TCW9).
T21 construct: purchased Eurofins DiscoverX (PathHunter gpcrMAX)
Particulars: screen, control agonist; CHO, 37C, 2HR.

Assay [24] addresses T22, PROKR2 (Homo sapiens, UniProt Q8NFJ6).
T22 construct: purchased Eurofins DiscoverX (PathHunter gpcrMAX)
Particulars: screen, control agonist; CHO, 37C, 2HR.

PTGER4, sequence (P35408 whole entry): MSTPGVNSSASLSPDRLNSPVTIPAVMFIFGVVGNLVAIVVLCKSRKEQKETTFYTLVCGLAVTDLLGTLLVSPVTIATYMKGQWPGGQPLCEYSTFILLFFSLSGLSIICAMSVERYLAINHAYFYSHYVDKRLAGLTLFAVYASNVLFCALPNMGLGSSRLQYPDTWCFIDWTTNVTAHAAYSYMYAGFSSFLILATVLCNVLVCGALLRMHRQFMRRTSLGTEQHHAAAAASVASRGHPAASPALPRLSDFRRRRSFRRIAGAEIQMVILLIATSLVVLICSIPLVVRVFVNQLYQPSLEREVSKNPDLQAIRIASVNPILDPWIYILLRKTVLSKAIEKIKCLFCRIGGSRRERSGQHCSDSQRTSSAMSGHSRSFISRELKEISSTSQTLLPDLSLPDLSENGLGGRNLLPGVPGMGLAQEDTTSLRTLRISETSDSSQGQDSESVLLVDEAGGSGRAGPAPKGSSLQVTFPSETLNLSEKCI
T11 sequence (P46663 whole entry): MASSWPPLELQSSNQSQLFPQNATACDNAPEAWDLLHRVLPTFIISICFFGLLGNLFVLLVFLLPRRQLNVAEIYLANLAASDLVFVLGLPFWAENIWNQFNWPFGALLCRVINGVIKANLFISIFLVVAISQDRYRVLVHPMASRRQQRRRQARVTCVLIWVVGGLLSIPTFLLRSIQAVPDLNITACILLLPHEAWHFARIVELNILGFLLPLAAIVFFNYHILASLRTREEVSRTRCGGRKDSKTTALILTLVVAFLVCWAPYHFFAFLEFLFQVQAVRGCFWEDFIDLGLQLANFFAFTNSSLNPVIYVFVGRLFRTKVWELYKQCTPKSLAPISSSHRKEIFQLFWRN
T6 sequence (P21731 whole entry): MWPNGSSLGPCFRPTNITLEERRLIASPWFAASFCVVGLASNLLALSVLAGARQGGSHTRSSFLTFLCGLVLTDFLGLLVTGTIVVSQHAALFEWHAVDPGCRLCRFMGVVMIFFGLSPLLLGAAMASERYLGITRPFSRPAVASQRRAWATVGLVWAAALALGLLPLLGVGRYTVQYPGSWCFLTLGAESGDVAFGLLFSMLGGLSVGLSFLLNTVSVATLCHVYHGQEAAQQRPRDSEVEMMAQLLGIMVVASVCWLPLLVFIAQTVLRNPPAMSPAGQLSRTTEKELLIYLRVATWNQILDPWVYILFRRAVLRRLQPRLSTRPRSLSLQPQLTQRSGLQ
T22 sequence (Q8NFJ6 whole entry): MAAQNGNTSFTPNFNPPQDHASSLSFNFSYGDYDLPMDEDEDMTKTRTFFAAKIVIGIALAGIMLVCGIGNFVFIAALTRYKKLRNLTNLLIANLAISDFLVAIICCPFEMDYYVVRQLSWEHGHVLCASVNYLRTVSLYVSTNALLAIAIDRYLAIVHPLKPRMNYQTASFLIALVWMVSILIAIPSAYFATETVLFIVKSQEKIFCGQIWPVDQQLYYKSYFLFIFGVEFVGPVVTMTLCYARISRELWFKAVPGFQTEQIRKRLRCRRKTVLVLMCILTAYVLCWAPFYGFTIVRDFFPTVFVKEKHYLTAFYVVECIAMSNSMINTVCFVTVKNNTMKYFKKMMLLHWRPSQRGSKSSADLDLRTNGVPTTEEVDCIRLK
T1 sequence (P43119 whole entry): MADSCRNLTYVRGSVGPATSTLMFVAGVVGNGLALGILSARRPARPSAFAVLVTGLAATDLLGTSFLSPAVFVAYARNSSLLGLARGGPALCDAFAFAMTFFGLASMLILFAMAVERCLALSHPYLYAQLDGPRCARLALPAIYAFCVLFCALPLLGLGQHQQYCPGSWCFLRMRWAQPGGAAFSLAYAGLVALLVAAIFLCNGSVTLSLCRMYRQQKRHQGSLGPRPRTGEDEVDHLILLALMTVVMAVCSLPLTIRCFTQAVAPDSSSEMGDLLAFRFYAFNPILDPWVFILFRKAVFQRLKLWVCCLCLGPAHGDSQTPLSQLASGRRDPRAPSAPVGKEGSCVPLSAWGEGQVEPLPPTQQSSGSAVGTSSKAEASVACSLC
T4 sequence (Q8TDS5 whole entry): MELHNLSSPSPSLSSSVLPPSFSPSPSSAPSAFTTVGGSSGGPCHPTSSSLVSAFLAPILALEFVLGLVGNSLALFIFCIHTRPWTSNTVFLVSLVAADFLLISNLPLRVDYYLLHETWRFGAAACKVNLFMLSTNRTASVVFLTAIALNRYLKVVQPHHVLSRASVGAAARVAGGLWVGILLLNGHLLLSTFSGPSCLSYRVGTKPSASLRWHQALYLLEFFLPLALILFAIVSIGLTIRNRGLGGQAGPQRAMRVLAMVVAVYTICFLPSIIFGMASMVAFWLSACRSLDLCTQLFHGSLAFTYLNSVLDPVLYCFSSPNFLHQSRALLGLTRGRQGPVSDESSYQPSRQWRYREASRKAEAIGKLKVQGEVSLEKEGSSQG
T7 sequence (P25105 whole entry): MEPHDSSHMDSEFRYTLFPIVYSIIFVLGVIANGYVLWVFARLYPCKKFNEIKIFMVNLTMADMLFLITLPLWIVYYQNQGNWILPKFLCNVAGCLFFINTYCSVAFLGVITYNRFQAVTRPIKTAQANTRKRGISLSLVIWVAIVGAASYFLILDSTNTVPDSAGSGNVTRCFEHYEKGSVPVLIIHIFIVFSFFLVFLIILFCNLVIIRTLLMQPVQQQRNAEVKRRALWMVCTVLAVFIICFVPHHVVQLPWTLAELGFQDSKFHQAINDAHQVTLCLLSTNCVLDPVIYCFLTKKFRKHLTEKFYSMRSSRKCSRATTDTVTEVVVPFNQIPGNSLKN
T21 sequence (Q8TCW9 whole entry): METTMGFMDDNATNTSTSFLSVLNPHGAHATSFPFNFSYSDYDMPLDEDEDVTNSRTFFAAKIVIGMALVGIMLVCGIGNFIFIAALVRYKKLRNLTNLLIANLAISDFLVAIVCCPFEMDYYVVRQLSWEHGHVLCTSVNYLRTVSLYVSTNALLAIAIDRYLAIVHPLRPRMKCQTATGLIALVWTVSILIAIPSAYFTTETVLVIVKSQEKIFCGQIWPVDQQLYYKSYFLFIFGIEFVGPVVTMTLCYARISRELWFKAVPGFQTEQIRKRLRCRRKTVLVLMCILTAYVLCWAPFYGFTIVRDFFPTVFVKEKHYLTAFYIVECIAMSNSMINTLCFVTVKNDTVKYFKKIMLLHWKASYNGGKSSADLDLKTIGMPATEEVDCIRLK
T10 sequence (P51582 whole entry): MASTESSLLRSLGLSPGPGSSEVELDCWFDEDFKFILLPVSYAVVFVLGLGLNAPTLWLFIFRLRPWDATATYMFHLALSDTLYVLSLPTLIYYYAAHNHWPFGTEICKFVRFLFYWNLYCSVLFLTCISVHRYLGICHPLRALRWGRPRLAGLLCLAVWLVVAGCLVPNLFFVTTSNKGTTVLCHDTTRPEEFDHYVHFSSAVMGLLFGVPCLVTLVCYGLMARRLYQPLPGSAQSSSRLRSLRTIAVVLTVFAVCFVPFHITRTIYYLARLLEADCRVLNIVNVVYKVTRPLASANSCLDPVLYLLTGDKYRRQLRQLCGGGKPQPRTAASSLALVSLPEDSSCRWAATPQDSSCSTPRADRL
T17 sequence (P49190 25-550): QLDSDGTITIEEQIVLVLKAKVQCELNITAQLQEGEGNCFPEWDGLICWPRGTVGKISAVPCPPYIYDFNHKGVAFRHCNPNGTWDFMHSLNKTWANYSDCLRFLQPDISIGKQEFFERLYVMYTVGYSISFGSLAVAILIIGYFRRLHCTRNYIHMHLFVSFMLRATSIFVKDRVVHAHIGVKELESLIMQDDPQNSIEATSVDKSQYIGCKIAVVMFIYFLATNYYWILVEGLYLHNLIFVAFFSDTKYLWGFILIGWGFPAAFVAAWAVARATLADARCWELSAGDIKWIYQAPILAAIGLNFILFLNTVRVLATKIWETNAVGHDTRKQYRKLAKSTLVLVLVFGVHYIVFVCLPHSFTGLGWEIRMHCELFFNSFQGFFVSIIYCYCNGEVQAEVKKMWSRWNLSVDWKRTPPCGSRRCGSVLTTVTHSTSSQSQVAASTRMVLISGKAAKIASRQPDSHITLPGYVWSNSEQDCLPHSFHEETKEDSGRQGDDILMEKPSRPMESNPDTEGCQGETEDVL
T5 sequence (Q96G91 whole entry, one chain of several): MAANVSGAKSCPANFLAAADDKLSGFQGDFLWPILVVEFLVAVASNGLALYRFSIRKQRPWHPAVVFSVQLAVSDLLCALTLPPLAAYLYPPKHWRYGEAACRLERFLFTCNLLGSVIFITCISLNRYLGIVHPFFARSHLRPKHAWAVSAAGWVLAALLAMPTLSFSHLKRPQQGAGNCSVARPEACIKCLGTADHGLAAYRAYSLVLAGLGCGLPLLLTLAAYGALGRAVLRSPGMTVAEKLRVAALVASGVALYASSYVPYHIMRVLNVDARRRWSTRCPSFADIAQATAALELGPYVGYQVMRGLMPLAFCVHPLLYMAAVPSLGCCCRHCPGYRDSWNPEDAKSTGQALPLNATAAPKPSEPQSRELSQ
T9 sequence (P41231 whole entry): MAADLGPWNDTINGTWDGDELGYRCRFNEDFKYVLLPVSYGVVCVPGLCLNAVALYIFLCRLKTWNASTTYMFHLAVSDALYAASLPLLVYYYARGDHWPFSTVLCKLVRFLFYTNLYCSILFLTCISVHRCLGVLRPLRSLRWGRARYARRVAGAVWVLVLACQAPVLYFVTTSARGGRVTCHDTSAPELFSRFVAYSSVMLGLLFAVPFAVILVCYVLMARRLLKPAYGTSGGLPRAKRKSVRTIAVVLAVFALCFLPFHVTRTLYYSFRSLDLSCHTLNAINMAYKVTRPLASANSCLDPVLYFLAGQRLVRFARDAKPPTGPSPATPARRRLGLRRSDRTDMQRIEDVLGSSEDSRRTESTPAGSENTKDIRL

A word on the EC80: it is the concentration at which the effect reaches the 80% level. A high value points to a need for much substance. Molecule `CC#CCC(C)[C@H](O)/C=C/[C@@H]1[C@H]2c3cccc(CCCC(=O)O)c3O[C@H]2C[C@H]1O` (mixture of isomers) [Beraprost] displayed an EC80 in [1] of 1.7 µM.
For the molecule `CSc1nc(N)c2ncn([C@@H]3O[C@H](COP(=O)(O)OP(=O)(O)O)[C@@H](O)[C@H]3O)c2n1` [2-methylthio-ADP], the values for the EC80 in assay [2] and in assay [3] were 0.0414 µM and 1.57 nM, respectively.
Molecule `CCCCC/C=C\C/C=C\C/C=C\C=C\C(=O)CCCC(=O)O` [5-OxoETE] yielded an EC80 in assay [4] of 2.13 µM.
For `Nc1ncnc2c1ncn2[C@@H]1O[C@H](COP(=O)(O)OP(=O)(O)OP(=O)(O)O)[C@@H](O)[C@H]1O` [ATP], in assay [5], the EC80 amounted to 1290 µM.
Molecule `O=C(O)CCC/C=C\C[C@@H]1[C@@H](/C=C/[C@@H](O)COc2ccc(I)cc2)[C@H]2CC[C@@H]1O2` [I-BOP] registered an EC80 in assay [6] of 0.0291 µM.
For `CCCCCCCCCCCCCCCCOC[C@H](COP(=O)([O-])OCC[N+](C)(C)C)OC(C)=O` [PAF], in [7], the EC80 stood at 0.019 µM.
As for `CCCCC[C@H](O)/C=C/[C@H]1[C@H](O)CC(=O)[C@@H]1C/C=C\CCCC(=O)O` [Prostaglandin E2], the EC80 in assay [8] (follow-up concentration-response assays) is 4.75 nM; in assay [8] (screen, HEK, 37C, 2HR), 3.58 nM; in assay [9] it was 3.65 µM.
Consider `O=c1ccn([C@@H]2O[C@H](COP(=O)(O)OP(=O)(O)OP(=O)(O)O)[C@@H](O)[C@H]2O)c(=O)[nH]1` [UTP], for which the EC80 in [10] came out at 0.225 µM; in assay [11], 2.58 µM; in assay [12], 0.93 µM.
LDA-Bradykinin: the EC80 in [13] is 4.67 nM.
Regarding “Neuropeptide S (SFRNGVGTGMKKTSFQRAKS; Neuropeptide S; UniProt P0C0P6 70-89, looked up) [control agonist]”, the EC80 in assay [14] worked out at 0.0457 µM.
In assay [15], Peptide YY: control agonist came in with an 80% effect concentration (EC80) of 4.18 nM.
In assay [16], PrRP-31 gave an EC80 of 1.8 nM.
Consider Relaxin-3, for which the EC80 in assay [17] is 0.0627 µM.
Substance P had an EC80 in assay [18] of 0.0804 µM.
The molecule TIP-39 returned an EC80 in [19] of 4.8 nM.
In [20], Tyr-SST 14 registered an EC80 of 0.0542 µM.

B1: Complement C5a: control agonist (protein, UniProt P01031 678-751, looked up)
C5a anaphylatoxin: TLQKKIEEIAAKYKHSVVKKCCYDGACVNNDETCEQRAARISLGPRCIKAFTECCVVASQLRANISHKDMQLGR
modifications: C5a anaphylatoxin
notes: control agonist
As to B1, the EC80 in assay [21] is 3.6 nM; in [22], 2.7 nM.

B2: EG VEGF: control agonist for PROKR1 and PROKR2 (protein, UniProt P58294 20-105, looked up)
Prokineticin-1: AVITGACERDVQCGAGTCCAISLWLRGLRMCTPLGREGEECHPGSHKVPFFRKRKHHTCPCLPNLLCSRFPDGRYRCSMDLKNINF
On to B2, for which the EC80 in assay [23] was found to be 0.0533 µM; in assay [24] it was 0.0302 µM.
